Results published in US20250114455A1, “RADIOSENSITIZING COMPOSITIONS AND METHODS OF USE THEREOF” (University of Georgia Research Foundation, Inc., priority 2022, published 2025).
Where a SMILES comes first, the peptide text is derived from it. [ ]: non-standard residue; d: D form. The star is where a group is joined. ξ: configuration not given here. ξGly(4-Pip(1-amidino)) = N=C(N)N1CCC(C(N)C(=O)O)CC1; ξGly(piperidin-4-yl) = NC(C(=O)O)C1CCNCC1; ξTle = CC(C)(C)C(N)C(=O)O; ξP = O=C(O)C1CCCN1; X1 = CC(CS)C(=O)*

Tests used:
MTT cell viability assay = type: cell-based, murine; settings: mouse, CT26 cells, no radiation, read-out: IC50 (cytotoxicity)
Experimental: (§1) CT26, a murine colorectal carcinoma cell line, was cultured following the protocol provided by the ATCC. A complete growth medium was prepared by adding 50 mL fetal bovine serum (FBS; Atlanta Biologicals, Cat #S11150) and 5 mL penicillin-streptomycin (Corning Cat #30-002-CI) to 450 mL of RPMI 1640 medium (Corning, Cat #10-104-CV). The cells were sub-cultured every three days and stored in a Thermo Scientific Heracell 150i incubator at 37° C. A day before the experiment, the cells were washed with PBS and collected by trypsinization (37° C., 2 min) followed by neutralization with cell culture medium and centrifugation (1200 rpm, 5 min). The supernatant was removed, and cells were dispersed in new cell culture medium. The cell density was counted using a hemocytometer (Hausser Scientific, Cat #3200) to seed the desired number of cells on the experimental plate(s).
(§2) The cell viability was studied with CT26 cells using the standard MTT assays. Briefly, CT26 cells (10,000 cells per well) were seeded on clear 96-well plates (Corning Costar, Cat #3599). […] 20 μL of 10 mg/mL 3-(4,5-Dimethylthiazolyl-2)-2,5-diphenyltetrazolium bromide (MTT) solution was added into each well. After 4 h incubation at 37° C. and 5% CO2, the solution was discarded from each well, and 100 μL of DMSO was added to each well resulting in purple suspensions. The absorbance at 570 nm was measured using a BioTek Synergy MX multi-mode microplate reader.

CT26 cells = assay: MTT cell viability assay; type: cell-based, murine; settings: 24 h; for toxicity / viability drop in the absence of radiation: 7-DHC concentration below 12.5 μg/mL
Experimental: as §1, §2

[1] = LC/MS analysis of autooxidation and lipid peroxidation; settings: 320 kV, 5 Gy
Experimental: Samples were generated by mixing solutions of 10 mg/mL 7-DHC, or 5 mg/mL DHCEO in 5 mL solvent containing 4 mL CH3CN+1 mL Mil-Q-H2O (or 1 mL H2O2). Samples were treated with either PBS or 5 Gy IR followed by incubation for 24 h. The lipid sample was prepared by using 16:0-18:2 PC mixed with 7-DHC at a 3:1 mole ratio in 2:1 v/v of CHCl3:MeOH solution. The solvent was then rotor evaporated and the mixture was rehydrated in 1 mL Mil-Q-H2O. Samples were subjected to LC/MS analysis. Liquid chromatography was performed on an Applied Biosystems 140 B solvent delivery system using water with 0.1% formic acid as solvent A and acetonitrile as solvent B. The linear solvent gradient was from 70% B to 95% B over 20 minutes at a flow rate of 50 μl/min. A Thermo Hypersil-Keystone 1×150 mm Biobasic-4 column with 5 μm particle size and 300 A pore size was used. The effluent was directed into a Bruker Daltonics Esquire 3000 plus ion trap mass spectrometer equipped with an atmospheric pressure chemical ionization (electrospray ionization for the lipid sample) source. The instrument was scanned in enhanced mode from 340-500 m/z with the capillary at 4 KV. The dry as temperature was held at 300 degrees C. at a flow rate of 41/min nitrogen. The nebulizer was set to 15 PSI of nitrogen. The vaporizer temperature was held at 380 degrees C.

[2] = cited from earlier work
NTSR1 = NTSR1 (Homo sapiens, UniProt P30989); settings: compared to wildtype NTS; cited from earlier work
[3] = compared to wildtype NTS; cited from earlier work
serum calcium level = type: in vivo, balb/c mice; settings: 200 μg/kg injected, healthy mice; tolerated level for mice 8.0-11.5 mg/dl
Experimental: Blood samples were collected at 0, 2, 6, and 24 h for analysis.

Sequence of NTSR1 (P30989 whole entry): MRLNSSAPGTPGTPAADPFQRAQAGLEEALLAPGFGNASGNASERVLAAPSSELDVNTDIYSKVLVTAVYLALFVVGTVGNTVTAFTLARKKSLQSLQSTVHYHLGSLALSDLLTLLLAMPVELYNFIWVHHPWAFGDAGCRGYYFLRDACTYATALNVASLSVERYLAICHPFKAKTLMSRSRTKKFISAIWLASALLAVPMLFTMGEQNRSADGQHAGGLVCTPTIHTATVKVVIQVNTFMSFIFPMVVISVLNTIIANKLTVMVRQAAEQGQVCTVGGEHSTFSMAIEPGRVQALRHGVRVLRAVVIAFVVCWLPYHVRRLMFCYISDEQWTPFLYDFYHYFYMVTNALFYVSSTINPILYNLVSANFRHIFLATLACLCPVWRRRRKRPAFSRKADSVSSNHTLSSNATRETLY

## CC(C)CCC[C@@H](C)[C@H]1CC[C@H]2C3=CC=C4C[C@@H](O)CC[C@]4(C)[C@H]3CC[C@]12C [7-DHC, 7-dehydrocholesterol]
MTT cell viability assay
  IC50 at 24 h: 71.4 µg/mL
CT26 cells
  toxicity / viability drop in the absence of radiation: Neither 7-DHC nor 7-DHC@PLGA NPs caused significant viability drop
CT26 cells; listed as free 7-DHC
  toxicity / viability drop in the absence of radiation: minimal toxicity
[1]
  conversion after radiation (LC/MS): converted to oxysterols
[2]
  solubility in water: poorly soluble in water

## CC(C)C[C@H](NC(=O)C(NC(=O)[C@H](Cc1ccc(O)cc1)NC(=O)C1CCCN1C(=O)[C@H](CCCNC(=N)N)NC(=O)C(NC(=O)C1CCCN1C(=O)C(NC(=O)C(C)CS)C1CCNCC1)C1CCN(C(=N)N)CC1)C(C)(C)C)C(=O)O (stereo partly drawn) [NTSmut] (X1-[ξGly(piperidin-4-yl)][ξP][ξGly(4-Pip(1-amidino))]R[ξP]Y[ξTle]L-OH)
NTSR1
  avidity to NTSR1: nanomolar
[3]
  biological stability: much greater biological stability

## C=C1/C(=C\C=C2/CCC[C@]3(C)[C@@H]([C@H](C)CCCC(C)(C)O)CC[C@@H]23)C[C@@H](O)C[C@@H]1O [calcitriol]
Serum calcium level
  serum calcium: 17.5 mg/dL

## NCCC(=O)N[C@@H](Cc1cnc[nH]1)C(=O)O [carnosine, reference compound]
CT26 cells; MTT, IR 5 Gy
  effect of co-incubation on toxicity induced by 7-DHC@PLGA NPs+IR: mitigated toxicity
